Assay [1] deals with healthy volunteers. As to the kind of experiment: Phase 1 MAD study: gastric emptying by scintigraphic imaging. In kind it is in vivo, human. Particulars: for Gastric Emptying Day 1 Improvement Over Baseline T25% / Gastric Emptying Day 1 Improvement Over Baseline T50%: single dose Day 1; for acceleration of liquid meal emptying (GET50) vs pre-dosing baseline: TID. On the procedure: Healthy male and female volunteers aged 18 to 55 years participated in the trial. […] The doses studied were SAD: 600, 1200, and 900 μg/kg and MAD: 300, 150, and 80 μg/kg q8H for seven days.

For assay [2], the system named is healthy volunteers. In words: Phase 1 SAD/MAD study: growth hormone levels. In kind it is in vivo, human. Particulars: for GH level spike: 150 μg/kg TID. On the procedure:
A randomized, double-blind, placebo-controlled, single and multiple ascending IV dose (SAD and MAD), sequential-group study to assess the safety, tolerability, PK, and PD of ulimorelin in healthy subjects was initiated and conducted as follows.
Levels on Day 1 were meaningfully greater than those seen in placebo subjects at any timepoint (pooled placebo mean GH levels were 3.2 μg/L and ranged from about 0.1 to 11 μg/L). Over time, the spikes in GH levels diminished but remained measureable and within or slightly greater than the expected physiological range of the assay (0-0.8 μg/L for males and 0-8 μg/L for females).

Assay [3] has as its system diabetic gastroparesis patients. As to conditions: cited from earlier work.
Assay [4] has as its system patients with post-operative ileus. As to conditions: Phase 2, once daily dosing for up to 7 days; cited from earlier work.
The subject of assay [5] is intensive care unit patients with severe septic shock. As to conditions: esmolol group; […] in the control group; cited from earlier work.

Marks after values point to notes of the source that are not given here.

As to ulimorelin, the “Gastric Emptying Day 4 Improvement Over Baseline T25%” value was 35% in assay [1] (80 μg/kg q8H), 25% in assay [1] (150 μg/kg q8H) and 31% in assay [1] (300 μg/kg q8H). The entries for the “Gastric Emptying Day 4 Improvement Over Baseline T50%” value in assay [1] (80 μg/kg q8H), in assay [1] (150 μg/kg q8H) and in assay [1] (300 μg/kg q8H) were 26%, 23%* and 27%*, respectively. Moreover, the “Gastric Emptying Day 1 Improvement Over Baseline T25%” value in assay [1] (80 μg/kg) came to 30%; in assay [1] (150 μg/kg), 45%*; in assay [1] (300 μg/kg), 54%*. The results for the “Gastric Emptying Day 1 Improvement Over Baseline T50%” value in assay [1] (80 μg/kg), in assay [1] (150 μg/kg) and in assay [1] (300 μg/kg) were 14%, 34%* and 46%*, respectively. In addition, the “acceleration of liquid meal emptying (GET50) vs pre-dosing baseline” value in assay [1] (Day 1, both treatment groups) is recorded as “greater than 30%”; in assay [1] (Day 4, both treatment groups) it was over 20%. The “Mean Max GH” value in assay [2] (Female, 150 μg/kg, Day 1) turned out to be 18.8 μ/L; in assay [2] (Female, 150 μg/kg, Day 4), 10.7 μ/L; in assay [2] (Female, 150 μg/kg, Day 7), 6.2 μ/L; in assay [2] (Female, 300 μg/kg, Day 1) it was 41.5 μ/L; in assay [2] (Female, 300 μg/kg, Day 4) it was 31.5 μ/L; in assay [2] (Female, 600 μg/kg, Day 1) it was 77.9 μ/L. Besides, the “Mean Max GH” value in assay [2] (Female, 900 μg/kg, Day 1) stood at 83.4 μ/L; in assay [2] (Female, 1200 μg/kg, Day 1), 76.0 μ/L; in assay [2] (Male, 150 μg/kg, Day 1) it was 11.4 µg/L; in assay [2] (Male, 150 μg/kg, Day 4) it was 2.4 µg/L; in assay [2] (Male, 150 μg/kg, Day 7), 1.7 µg/L; in assay [2] (Male, 300 μg/kg, Day 1), 18.7 µg/L. For the same compound, the “Mean Max GH” value in assay [2] (Male, 300 μg/kg, Day 4) is 4.0 µg/L; in assay [2] (Male, 300 μg/kg, Day 7) it was 3.0 µg/L; in assay [2] (Male, 600 μg/kg, Day 1), 41.7 µg/L; in assay [2] (Male, 900 μg/kg, Day 1), 79.7 µg/L; in assay [2] (Male, 1200 μg/kg, Day 1) it was 53.0 µg/L; in assay [2] (Person, 300 μg/kg, Day 7, n = 1), 11.3* μ/L. Further, the GH level spike in assay [2] (females, Day 1) is about 19 µg/L; in assay [2] (males, Day 1) it was about 11 µg/L. For the same compound, in assay [3] (Phase 2, 10 patients with diabetic gastroparesis, 30 min IV infusion once daily), the gastric emptying entry is “accelerated gastric emptying of solid and liquid food”. Also, the GCSI scores result in assay [3] (additional Phase 2 study of diabetic gastroparesis patients) was “improvements in GCSI Loss of Appetite and Vomiting scores”. The “time to first bowel movement (BM)” value in assay [4] is given as “shortened time to first bowel movement”.

Regarding `COC(=O)CCc1ccc(OCC(O)CNC(C)C)cc1` (centres unmarked) [esmolol], the twenty-eight day mortality in assay [5] is 49.4%.

These data come from patent publication US10092621B2 (priority 2014, dated 2018).
